# Data: publication PMC8667918, “Synthesis and biological evaluation of halogenated phenoxychalcones and their corresponding pyrazolines as cytotoxic agents in human breast cancer” (Journal of Enzyme Inhibition and Medicinal Chemistry, 2021)
# “And” between values parts separate entries of the source, which are not always exact repeats. Identical values can stand only once.
# Tests used:
# [1] = MTT assay, cytotoxicity against normal breast cell line MCF-10a; details: human; for IC50 at 48 h: MCF-10a normal breast cells
# Method: (§1) Human breast cancer cell line MCF-7 and normal breast cell line MCF-10a were obtained from American type culture collection, MCF-7 cells were cultured using Dulbecco’s Modified Eagle Medium DMEM (Invitrogen/Life Technologies) supplemented with 10% FBS (Hyclone), 10 µg/ml of insulin (Sigma), and 1% penicillin-streptomycin. MCF-10a cell line was cultured using DMEM medium supplemented with 10% FBS, 1% sodium pyruvate, 1% MEM NEAA, 20 ng/ml human epidermal growth factor (HEGF), 10 μg/ml insulin and 0.05 mM hydrocortisone. The cells were incubated at 37 °C in a humidified atmosphere of 5% CO2.
# (§2) The anticancer effect of phenoxychalcones and N-acetylpyrazolines on the viability of both tumour and normal cells was evaluated using МТТ assay as a rapid colorimetric assay. It is based on the ability of mitochondrial dehydrogenases of viable cells to reduce yellow tetrazolium salt MTT to blue formazan in quantities proportional to the number of living cells. The cells were incubated with the medium alone or with the tested compounds at concentrations of 100 µM, 25 µM, 6.25 µM, 1.56 µM and 0.39 µM for 48 h. […] Then, 20 μL MTT solution was added to each well and mixed. After 4 h, the supernatants were removed and 100 μL DMSO was added to each well to dissolve the precipitate. The viability of cells was estimated by measuring the absorbance at 570 nm using a Bioline ELIZA plate reader. The cell viability percentage was calculated based on the absorbance ratio between cell culture treated with the compounds and the untreated control multiplied by 100. Selectivity index (SI) was calculated as the ratio of cytotoxicity (IC50) on normal cells (MCF-10a) to cancer cells (MCF-7).
# [2] = test system: MCF-7 breast cancer cell line; experiment: MTT assay, cytotoxicity against breast cancer cell line MCF-7; details: for IC50: Homo sapiens, MCF7, 48 h, read-out: In vitro cytotoxicity IC50 MCF-7; for Selectivity index: ratio of IC50 on normal cells (MCF-10a) to cancer cells (MCF-7)
# Method: as §1, §2
# MCF-7 = details: reported chalcones of Figure 1; cited from earlier work
# C6 and Hela cell lines = test system: C6 and Hela cell lines; design: method as in PMID 31927336, PMID 22503741; details: reported chalcone of Figure 1; cited from earlier work
# MCF-7 cells [3] = experiment: Cell cycle analysis by propidium iodide flow cytometry; assay type: cell-based, human
# Method: The cell cycle analysis was carried out by flow cytometry using ab139418_propidium iodide flow cytometry kit/BD (Abcam, Cambridge, UK) according to the manufacturer instructions. […] After treatment, the cells were washed twice with ice-cold phosphate buffer saline (PBS) and collected by centrifugation. The cells were then fixed using ice-cold 66% (v/v) ethanol, washed with PBS, and re-suspended with 0.1 mg/mL RNase to digest cellular RNA and thus minimise stained RNA in the background. The cells were then stained with […] propidium iodide (PI), a fluorescent molecule with the ability to bind to nucleic acid. PI binds to the DNA in cells in proportion to its amount. As the DNA content is different among cells in different phases of cell cycle, the stage of cell growth can be determined based on fluorescence intensity. Cell fluorescence was evaluated using FacsCalibur (BD Biosciences, USA) and analysed using Cell- Quest software (Becton Dickinson)[41]. Cell cycle analysis of MCF-7 cells without any treatment was used as control.
# [4] = test system: p38 MAPK (phosphorylated and total) in MCF-7 cells; experiment: p38 MAPK (phosphorylated and total) ELISA in treated cells; assay type: cell-based, human; details: MCF-7, 1.52 µM, vs untreated cells
# Method: Measurements were performed using ELISA kits (R&D systems, Minneapolis, MN, USA ELISA (Cat. # KHO0071) and p38 MAPK (Total) ELISA, according to the manufacturer’s instructions.
# MCF-7 cells [5] = experiment: Annexin V-FITC/PI apoptosis assay by flow cytometry; assay type: cell-based, human; details: 24 h
# Method: Apoptosis assessment was carried out by flow cytometry using Annexin V-FITC and propidium iodide double-staining apoptosis detection kit (Biovision, USA) according to the manufacturer instructions. Annexin V is a protein with high affinity for phosphatidylserine (PS). The latter is a cell membrane component that translocate from the inner face of the plasma membrane to the cell surface soon after initiating apoptosis. […] The cells were then collected by centrifugation and re-suspended in 500 μL of binding buffer. Annexin V-FITC and PI double staining was performed by adding 5 μL of Annexin V-FITC and 5 μL of PI. The cells were then incubated in dark, at room temperature for 5 min. After incubation, cell fluorescence was evaluated using FacsCalibur (BD Biosciences, USA). Dot-plot graphs were used to illustrate the results.
# MCF-7 cells [6] = experiment: Intracellular reactive oxygen species (ROS) analysis with H2DCFDA; assay type: cell-based, human; details: MCF-7, 1.52 µM
# Method: Intracellular ROS was detected by cell-permeable fluorogenic probe H2DCFDA. Cell culture subdivided into three groups. The groups are the negative control (untreated MCF-7 cells), the positive control group (MCF-7 cells treated with H2O2), and test group (MCF-7 cells treated with compound 2c). After removing the culture supernatants, the cells were then incubated in fresh medium with 10 µM H2DCFDA at the dark at 37 °C for 1 h. The cells were washed with PBS buffer, then, harvested and the pellets were suspended in PBS. Samples were analysed ROBONIK P2000 ELISA reader wavelength 450 nm.
# leukemia = test system: leukemia; design: method as in PMID 31927336, PMID 22503741; details: reported chalcone of Figure 1; cited from earlier work
# [7] = MCF-7, 1.52 µM, in comparison to the control (DMSO)
# [8] = MCF-7, 1.52 µM, relative to control (DMSO)
smiles,measurement,setting,value
"CC(=O)N1N=C(c2ccc(Br)cc2)CC1c1ccc(Oc2ccc(Cl)cc2)cc1 (stereo not drawn) [Compound 3e, 1–(3-(4-Bromophenyl)-5–(4-(4-chlorophenoxy)phenyl)-4,5-dihydro-1H-pyrazol-1-yl) ethanone]",melting point,,117 to 119 °C
same,IC50 at 48 h,[1],10.1 ± 0.62 µM
same,IC50,[2],5.02 ± 0.22 µM
same,Selectivity index,[2],2.02
Nc1ccc(C(=O)/C=C/c2cccc(Cl)c2)cc1 [VII],IC50,MCF-7,34.2 ± 6.4 µM
CCn1cc(/C=C/C(=O)c2ccc(Br)cc2)c(-c2ccc(OC)cc2)n1 [IX],IC50,MCF-7,18.7 µM
O=C(/C=C/c1ccc(Oc2ccc(Cl)cc2)cc1)c1ccc(N2CCOCC2)cc1 [V],activity against C6 and Hela cell lines,C6 and Hela cell lines,Effective against C6 and Hela cell lines
COc1ccc(C(=O)/C=C/c2ccc(Cl)cc2)c(Oc2cc(OC)c(OC)c(OC)c2)c1 [III],IC50,MCF-7,4.39 ± 0.26 µM
"O=C(C=Cc1ccc(Oc2ccc(Br)cc2)cc1)c1ccc(Cl)cc1 [Compound 2a, 3–(4-(4-Bromophenoxy)phenyl)-1–(4-chlorophenyl)prop-2-en-1-one]",melting point,,150 to 152 °C
same,IC50 at 48 h,[1],33.4 ± 1.34 µM
same,IC50,[2],8.51 ± 0.16 µM
same,Selectivity index,[2],3.92
"O=C(C=Cc1ccc(Oc2ccc(Cl)cc2)cc1)c1ccc(Cl)cc1 [Compound 2d, 3–(4-(4-Chlorophenoxy)phenyl)-1–(4-chlorophenyl)prop-2-en-1-one]",melting point,,120 to 122 °C
same,IC50 at 48 h,[1],33.1 ± 1.42 µM
same,IC50,[2],19.9 ± 0.66 µM
same,Selectivity index,[2],1.67
"CC(=O)N1N=C(c2ccc(Br)cc2)CC1c1ccc(Oc2ccc(Br)cc2)cc1 (stereo not drawn) [Compound 3b, 1–(5-(4–(4-Bromophenoxy)phenyl)-3–(4-bromophenyl)-4,5-dihydro-1H-pyrazol-1-yl) ethanone]",melting point,,138 to 140 °C
same,IC50 at 48 h,[1],11.5 ± 0.47 µM
same,IC50,[2],17.2 ± 0.62 µM
same,Selectivity index,[2],0.67
"CC(=O)N1N=C(c2ccc(Cl)cc2)CC1c1ccc(Oc2ccc(Cl)cc2)cc1 (stereo not drawn) [Compound 3d, 1–(5-(4–(4-Chlorophenoxy)phenyl)-3–(4-chlorophenyl)-4,5-dihydro-1H-pyrazol-1-yl) ethanone]",melting point,,116 to 118 °C
same,IC50 at 48 h,[1],45.7 ± 1.36 µM
same,IC50,[2],8.51 ± 0.27 µM
same,Selectivity index,[2],5.37
"O=C(C=Cc1ccc(Oc2ccc(Cl)cc2)cc1)c1ccc(Br)cc1 [Compound 2e, 1–(4-Bromophenyl)-3–(4-(4-chlorophenoxy)phenyl)prop-2-en-1-one]",melting point,,143 to 145 °C
same,IC50 at 48 h,[1],22.1 ± 1.08 µM
same,IC50,[2],44.2 ± 2.16 µM
same,Selectivity index,[2],0.50
COc1ccc(/C=C/C(=O)c2ccc(OC)cc2Oc2cc(OC)c(OC)c(OC)c2)cc1 [I],IC50,MCF-7,3.44 ± 0.19 µM
"O=C(C=Cc1ccc(Oc2ccc(Br)cc2)cc1)c1ccc(Br)cc1 [Compound 2b, 3–(4-(4-Bromophenoxy)phenyl)-1–(4-bromophenyl)prop-2-en-1-one]",melting point,,164 to 166 °C
same,IC50 at 48 h,[1],25.3 ± 1.17 µM
same,IC50,[2],13.3 ± 0.53 µM
same,Selectivity index,[2],1.91
Cc1ccc(C(=O)/C=C/c2cccc(Cl)c2Oc2c([N+](=O)[O-])cc(C(F)(F)F)cc2[N+](=O)[O-])cc1 [II],IC50,MCF-7,0.03 ± 0.002 µM
"Cc1ccc(C(=O)C=Cc2ccc(Oc3ccc(Br)cc3)cc2)cc1 [Compound 2c, 3–(4-(4-Bromophenoxy)phenyl)-1-(p-tolyl)prop-2-en-1-one]",IC50,[1],23.2 ± 0.88 µM
same,phase of cell cycle arrest,"MCF-7 cells [3]; MCF-7, 1.52 µM",G2/M phase
same,cell population %G0/G1,"MCF-7 cells [3]; MCF-7, 1.52 µM (IC50), 24 h",24.92%
same,cell population %G2/M,"MCF-7 cells [3]; MCF-7, 1.52 µM (IC50), 24 h",45.86%
same,cell population %Pre G1,"MCF-7 cells [3]; MCF-7, 1.52 µM (IC50), 24 h",29.41%
same,cell population %S,"MCF-7 cells [3]; MCF-7, 1.52 µM (IC50), 24 h",29.22%
same,augmentation of proportion of cells in the G2/M phase,MCF-7 cells [3]; [7],4.25 fold
same,augmentation of proportion of cells in the pre-G1 phase,MCF-7 cells [3]; [7],16.24 fold
same,decline in the cell population at the G0/G1 phase,MCF-7 cells [3]; [8],54.73%
same,decline in the cell population at the S phase,MCF-7 cells [3]; [8],14.5%
same,fold more active than 2a,[2],5.6 fold
same,fold more active than 2b,[2],8.7 fold
same,IC50,[2],1.52 ± 0.03 µM
same,Selectivity index,[2],15 and 15.24
same,down-regulation of total p38 MAPK,[4],~40%
same,interference with p38 MAPK phosphorylation (decrease of phosphorylated p38 MAPK),[4],~60%
same,"apoptotic cells percentage, early apoptosis","MCF-7 cells [5]; MCF-7, 1.52 µM (IC50)",5.17%
same,"apoptotic cells percentage, late apoptosis","MCF-7 cells [5]; MCF-7, 1.52 µM (IC50)",21.96%
same,percentage necrosis,"MCF-7 cells [5]; MCF-7, 1.52 µM (IC50)",2.28%
same,percentage of total apoptosis,"MCF-7 cells [5]; MCF-7, 1.52 µM (IC50)",29.41%
same,"elevation in late apoptosis, fold more than control","MCF-7 cells [5]; MCF-7, 1.52 µM",57.78 fold
same,"increase in early apoptosis, fold more than control","MCF-7 cells [5]; MCF-7, 1.52 µM",9.0 fold
same,"increase in total apoptosis, fold compared to the control","MCF-7 cells [5]; MCF-7, 1.52 µM",16.24 fold
same,ROS induction higher than control,MCF-7 cells [6],10%
"CC(=O)N1N=C(c2ccc(Cl)cc2)CC1c1ccc(Oc2ccc(Br)cc2)cc1 (stereo not drawn) [Compound 3a, 1–(5-(4–(4-Bromophenoxy)phenyl)-3–(4-chlorophenyl)-4,5-dihydro-1H-pyrazol-1-yl) ethanone]",melting point,,142 to 144 °C
same,IC50 at 48 h,[1],55.8 ± 1.92 µM
same,IC50,[2],10.6 ± 0.39 µM
same,Selectivity index,[2],5.29
O=C(/C=C/c1ccc(Br)cc1)c1c(O)cccc1OCc1ccccc1 [IV],activity against leukemia,leukemia,Effective against leukemia
"Cc1ccc(C(=O)C=Cc2ccc(Oc3ccc(Cl)cc3)cc2)cc1 [Compound 2f, 3–(4-(4-Chlorophenoxy)phenyl)-1-(p-tolyl)prop-2-en-1-one]",melting point,,136 to 138 °C
same,IC50 at 48 h,[1],20.6 ± 0.37 µM
same,IC50,[2],1.87 ± 0.02 µM
same,fold more active than 2e,[2]; MCF-7 IC50 compared with chalcone 2e,23.6 fold
same,fold more active than 2d,[2]; MCF-7 IC50 compared with chalcone 2d,10.6 fold
same,Selectivity index,[2],11.03
O=C(/C=C/c1cc(Br)ccc1O)c1ccc(Br)cc1 [VIII],IC50,MCF-7,3.82 ± 0.022 µM
"CC(=O)N1N=C(c2ccc(C)cc2)CC1c1ccc(Oc2ccc(Br)cc2)cc1 (stereo not drawn) [Compound 3c, 1–(5-(4–(4-Bromophenoxy)phenyl)-3-(p-tolyl)-4,5-dihydro-1H-pyrazol-1-yl)ethanone]",melting point,,141 to 143 °C
same,IC50 at 48 h,[1],19.5 ± 0.69 µM
same,IC50,[2],7.42 ± 0.28 µM
same,Selectivity index,[2],2.63
"CC(=O)N1N=C(c2ccc(C)cc2)CC1c1ccc(Oc2ccc(Cl)cc2)cc1 (stereo not drawn) [Compound 3f, 1–(5-(4–(4-Chlorophenoxy)phenyl)-3-(p-tolyl)-4,5-dihydro-1H-pyrazol-1-yl) ethanone]",melting point,,118 to 120 °C
same,IC50 at 48 h,[1],12.2 ± 0.79 µM
same,IC50,[2],4.77 ± 0.13 µM
same,Selectivity index,[2],2.55
